In PubChem BioAssay (NCI):
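1) Cells in 96-well plates. 2) Compound, 48 h, 5 concentrations. 3) Linear interpolation between surrounding doses. 4) Unreached endpoint = highest concentration. GI50 marks 50% less growth. At the TGI there is no net growth.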

Experiments:
Assay in all cases: growth of human tumour cells (NCI), 48 h
[1] = tested on: A498 renal
[2] = tested on: UO-31 renal
[3] = tested on: IGROV1 ovarian
[4] = tested on: RXF 393 renal
[5] = tested on: UACC-257 melanoma
[6] = tested on: SF-539 CNS
[7] = tested on: ACHN renal
[8] = tested on: NCI-H226 lung
[9] = tested on: OVCAR-8 ovarian
[10] = tested on: HS 578T breast

Structure (SMILES)	TGI [1]	TGI [2]	TGI [3]	TGI [4]	TGI [5]	TGI [6]	TGI [7]	TGI [8]	TGI [9]	GI50 [1]	GI50 [8]	TGI [10]	GI50 [2]	GI50 [9]	GI50 [3]	GI50 [4]	GI50 [5]	GI50 [6]	GI50 [10]	GI50 [7]
O=C(O)C(Br)Cc1ccc2c(c1)OCO2 (stereo unspecified)	> 100 µM	> 100 µM	> 100 µM	> 100 µM	> 100 µM	> 100 µM	> 100 µM	–	–	–	–	–	–	–	–	–	–	–	–	–
COc1cc2c3c(c4cc(OC)c(OC)cc4c2cc1OC)[C@H](O)[C@@H]1CCCN1C3	–	–	–	1.28 µM	1.15 µM	–	0.3 µM	3.64 µM	–	–	–	–	–	–	–	–	–	–	–	–
CSc1sc(=S)sc1SC	> 100 µM	> 100 µM	> 100 µM	> 100 µM	> 100 µM	> 100 µM	–	> 100 µM	> 100 µM	–	–	–	–	–	–	–	–	–	–	–
COc1cc2c3c(n(C4CCNCC4)c(=O)c2cc1OC)-c1cc2c(cc1C3=O)OCO2	3.32 µM	–	–	–	–	–	–	2.94 µM	–	0.619 µM	0.635 µM	–	–	–	–	–	–	–	–	–
S=C1NN=C2C(=C3CCCC4C5CCCCC5N2C34)N1 (stereo unspecified)	–	> 100 µM	> 100 µM	–	> 100 µM	–	> 100 µM	> 100 µM	> 100 µM	–	–	> 100 µM	–	–	–	–	–	–	–	–
C#C[C@@]1(O)[C@@H](CO)O[C@@H](n2cc(F)c3c(N)ncnc32)[C@@H]1O	2.27 µM	2.48 µM	1.42 µM	2.99 µM	4.64 µM	5.29 µM	> 100 µM	2.63 µM	3.69 µM	0.725 µM	0.521 µM	> 100 µM	0.47 µM	0.256 µM	0.324 µM	0.727 µM	0.487 µM	1.31 µM	3.97 µM	0.24 µM
C[C@H](CCC1=NCCN1)[C@H]1CC[C@H]2[C@@H]3CC[C@@H]4C[C@H](O)CC[C@]4(C)[C@H]3CC[C@]12C	34.5 µM	31.4 µM	25.4 µM	55.2 µM	6.6 µM	> 58.1 µM	24.2 µM	28.2 µM	37.2 µM	–	–	48.2 µM	–	–	–	–	–	–	–	–
CCCCCCCCCCCCCCCCOCCCOP(=O)(O)C1CCCN(O)C1=O (stereo unspecified)	12.4 µM	13.7 µM	4.77 µM	12.2 µM	14.8 µM	11 µM	14.2 µM	14.3 µM	27.8 µM	1.73 µM	2.1 µM	66.7 µM	2.77 µM	3.29 µM	0.609 µM	1.9 µM	3.23 µM	3.02 µM	14.1 µM	3.2 µM
COc1ccc(/C(Cl)=C(\C=O)c2ccc(Cl)c(Cl)c2)cc1OC	30.4 µM	20.7 µM	–	–	–	19.2 µM	18.2 µM	18.6 µM	57.7 µM	–	–	–	–	–	–	–	–	–	–	–
